Experimental findings from ChEMBL document CHEMBL4393704, “Synthesis and biological evaluation of dihydroquinazoline-2-amines as potent non-nucleoside reverse transcriptase inhibitors of wild-type and mutant HIV-1 strains” (Eur J Med Chem, 2019) are described below.

A short description of series [1]: Cytotoxicity against human MT4 cells measured after 5 days by MTT assay. It counts as cell-based. (Tetrazolium dyes change colour on reduction, which living cells bring about.)
Series [2] deals with Human immunodeficiency virus 1. The experiment in a line: Antiviral activity against HIV-1 3B harboring reverse transcriptase RES056 mutant infected in MT4 cells measured after 5 days by MTT assay. It counts as functional, organism-based. The note with it: Human immunodeficiency virus 1, 3B, MT4, 120 h.
In series [3] the test system is Human immunodeficiency virus 1. Briefly: Antiviral activity against HIV-1 3B harboring reverse transcriptase E138K mutant infected in MT4 cells measured after 5 days by MTT assay. It counts as functional, organism-based. The note with it: Human immunodeficiency virus 1, 3B, MT4, 120 h.
The test system of series [4] is Human immunodeficiency virus 1. Briefly: Antiviral activity against wild type HIV-1 3B infected in MT4 cells measured after 5 days by MTT assay. It counts as functional, organism-based. The note with it: Human immunodeficiency virus 1, 3B, MT4, 120 h.
Series [5] can be described thus: Selectivity index, ratio of CC50 for human MT4 cells to EC50 for HIV-1 3B infected in MT4 cells. It counts as toxicity, cell-based. Conditions: HIV-1 3B infected MT4 cells, read-out: Ratio CC50/EC50.
Series [6] concerns the target Human immunodeficiency virus type 1 reverse transcriptase (Human immunodeficiency virus 1, UniProt Q72547). Briefly: Inhibition of recombinant wild-type HIV1 3B reverse transcriptase assessed as reduction in biotin-dUTP incorporation using poly(rA)/oligo(dT)16 as template primer incubated for 1 hr followed by the addition of (DIG)-dUTP and biotin-labeled dNTPs by ELISA. Background: ELISA stands for enzyme-linked immunosorbent assay.

Series [7] deals with Human immunodeficiency virus 1. The experiment in a line: Potency index, ratio of ETV EC50 to compound EC50 for antiviral activity against HIV-1 3B harboring reverse transcriptase E138K mutant infected in MT4 cells measured after 5 days by MTT assay. It counts as functional.
The subject of series [8] is Human immunodeficiency virus 1. Briefly: Potency index, ratio of ETV EC50 to compound EC50 for antiviral activity against wild type HIV-1 3B infected in MT4 cells measured after 5 days by MTT assay. The series is classed as functional.
The subject of series [9] is Human immunodeficiency virus 1. Briefly: Potency index, ratio of EFV EC50 to compound EC50 for antiviral activity against wild type HIV-1 3B infected in MT4 cells measured after 5 days by MTT assay. The series is classed as functional.

On to `Fc1ccccc1NC1=Nc2ccc(Cl)cc2C(C#CC2CC2)(C(F)(F)F)N1` (stereo not given), for which the CC50 (in general, the concentration that lowers cell viability or growth by half) at 120 h in series [1] is 3100 nM. Also, the results for the EC50 in [2], in [3] and in [4] were over 3100 nM, 140 nM and 100 nM, respectively. Also, in series [5], the selectivity ratio was 31.

Regarding `FC(F)(F)C1(C#CC2CC2)NC(Nc2ccc(Cl)c(Cl)c2)=Nc2ccc(Cl)cc21` (stereo not given), the CC50 at 120 h in series [1] worked out at 2100 nM. Besides, the IC50 – broadly, the midpoint of a concentration-inhibition curve – in series [6] is 3.7 nM. For the same molecule, the EC50 (usually the concentration that produces a half-maximal response) in [2] was over 2100 nM; in series [3] it was 170 nM; in [4] it was 30 nM. For the same molecule, the selectivity ratio in [5] was 70.

`O=C1Nc2ccc(Cl)cc2[C@@](C#CC2CC2)(C(F)(F)F)O1` [EFAVIRENZ] gave a CC50 at 120 h in series [1] of over 2000 nM. Besides, the EC50 is 55 nM in [2] and 2 nM in [3].

`Fc1ccc(NC2=Nc3ccc(Cl)cc3C(C#CC3CC3)(C(F)(F)F)N2)cc1F` (stereo not given) showed a CC50 at 120 h in series [1] of 1800 nM. Also, the EC50 in series [2] was over 1800 nM; in [3] it was over 1800 nM; in series [4] it was 360 nM. The selectivity ratio in [5] came to 5.

Take `FC(F)(F)C1(C#CC2CC2)NC(Nc2cccc(Br)c2)=Nc2ccc(Cl)cc21` (stereo not given): in [1], half-maximal cytotoxicity (CC50 at 120 h) was put at 2100 nM. Moreover, the EC50 is over 2100 nM in series [2], 420 nM in series [3] and 150 nM in series [4]. For the same molecule, in series [5], the selectivity ratio came to 14.

Regarding `NC(=O)c1ccc(NC2=Nc3ccc(Cl)cc3C(C#CC3CC3)(C(F)(F)F)N2)cc1` (stereo not given), half-maximal cytotoxicity in [1] (CC50 at 120 h) was put at 12000 nM. Moreover, the EC50 in series [2] is over 2900 nM; in [3] it was 160 nM; in [4], 220 nM. The selectivity ratio in [5] came to 58.

Turning to `FC(F)(F)C1(C#CC2CC2)NC(Nc2ccccc2)=Nc2ccc(Cl)cc21` (stereo not given), it took 2400 nM to reach half-maximal cytotoxicity in series [1] (CC50 at 120 h). In addition, the EC50 was over 2400 nM in series [2], 380 nM in [3] and 110 nM in series [4]. In [5], the selectivity ratio was 21.

In the case of `FC(F)(F)C1(C#CC2CC2)NC(Nc2cccc(Cl)c2)=Nc2ccc(Cl)cc21` (stereo not given), the CC50 at 120 h in series [1] amounted to 2000 nM. For the same molecule, the EC50 in series [2] was over 2000 nM; in series [3], 480 nM; in series [4], 210 nM. In addition, the selectivity ratio in series [5] turned out to be 9.

`COc1ccccc1NC1=Nc2ccc(Cl)cc2C(C#CC2CC2)(C(F)(F)F)N1` (stereo not given) showed a CC50 at 120 h in [1] of 8600 nM. The EC50 in series [2] was over 8600 nM; in series [3], 190 nM; in series [4], 150 nM. In addition, in [5], the selectivity ratio turned out to be 58.

In [1], `Cc1ccccc1NC1=Nc2ccc(Cl)cc2C(C#CC2CC2)(C(F)(F)F)N1` (stereo not given) displayed a CC50 at 120 h of 4100 nM. Moreover, the EC50 in series [2] is over 4100 nM; in series [3], 400 nM; in [4] it was 140 nM. In addition, the selectivity ratio in series [5] stood at 30.

In the case of `O=[N+]([O-])c1cccc(NC2=Nc3ccc(Cl)cc3C(C#CC3CC3)(C(F)(F)F)N2)c1` (stereo not given), it took 1600 nM to reach half-maximal cytotoxicity in series [1] (CC50 at 120 h). Also, the EC50 was over 1600 nM in [2], 360 nM in series [3] and 120 nM in [4]. Also, in series [5], the selectivity ratio was determined as 14.

`FC(F)(F)c1cccc(NC2=Nc3ccc(Cl)cc3C(C#CC3CC3)(C(F)(F)F)N2)c1` (stereo not given) showed a CC50 at 120 h in series [1] of 3300 nM. Further, the IC50 in series [6] stood at 4.5 nM. The figures for the EC50 in series [2], in series [3] and in [4] were over 3200 nM, 350 nM and 51 nM, respectively. Further, in series [5], the selectivity ratio was found to be 64.

In [1], `FC(F)(F)C1(C#CC2CC2)NC(Nc2ccccc2Br)=Nc2ccc(Cl)cc21` (stereo not given) returned a CC50 at 120 h of 11000 nM. For the same molecule, the IC50 in series [6] is 3.4 nM. The EC50 in [2] turned out to be 1800 nM; in [3] it was 160 nM; in [4], 88 nM. Further, the selectivity ratio in [5] amounted to 133.

Take `N#Cc1ccc(NC2=Nc3ccc(Cl)cc3C(C#CC3CC3)(C(F)(F)F)N2)cc1` (stereo not given): the “Ratio EC50” value amounted to 2 in series [7], 9 in series [8] and 2 in [9]. Besides, the CC50 at 120 h in series [1] turned out to be 1900 nM. Also, in series [6], the IC50 amounted to 10 nM. Moreover, the results for the EC50 in series [2], in series [3] and in series [4] were 66 nM, 3.5 nM and 0.84 nM, respectively. The selectivity ratio in series [5] was determined as 2300.

The molecule `Cc1cc(C#N)cc(C)c1Oc1nc(Nc2ccc(C#N)cc2)nc(N)c1Br` [ETRAVIRINE] had a CC50 at 120 h in series [1] of over 2000 nM. Moreover, the figures for the EC50 in [2] and in series [3] were 15 nM and 6.3 nM, respectively. In addition, the selectivity ratio in series [5] is over 923.

As for `Cc1cc(C)cc(NC2=Nc3ccc(Cl)cc3C(C#CC3CC3)(C(F)(F)F)N2)c1` (stereo not given), the CC50 at 120 h in [1] amounted to 2100 nM. Besides, the EC50 in series [2] was over 2100 nM; in series [3], 600 nM; in [4], 360 nM. Further, the selectivity ratio in series [5] stood at 6.

On to `COc1ccc(NC2=Nc3ccc(Cl)cc3C(C#CC3CC3)(C(F)(F)F)N2)cc1` (stereo not given), for which the CC50 at 120 h in [1] was 8400 nM. Besides, the EC50 in series [2] was over 8400 nM; in series [3] it was 410 nM; in [4], 260 nM. Also, the selectivity ratio in series [5] was determined as 32.

Molecule `FC(F)(F)C1(C#CC2CC2)NC(Nc2ccc(Br)cc2)=Nc2ccc(Cl)cc21` (stereo not given) came in with a CC50 at 120 h in series [1] of over 3400 nM. Further, the values for the EC50 in series [2], in series [3] and in series [4] were over 3400 nM, over 3400 nM and 450 nM, respectively. The selectivity ratio in series [5] is over 8.

As for `Fc1ccc(NC2=Nc3ccc(Cl)cc3C(C#CC3CC3)(C(F)(F)F)N2)cc1` (stereo not given), in series [1], the CC50 at 120 h is 2400 nM. Moreover, the values for the EC50 in series [2], in series [3] and in series [4] were over 2300 nM, 460 nM and 250 nM, respectively. For the same molecule, in [5], the selectivity ratio is 9.

The molecule `Cc1ccc(NC2=Nc3ccc(Cl)cc3C(C#CC3CC3)(C(F)(F)F)N2)cc1C` (stereo not given) had a CC50 at 120 h in series [1] of 5900 nM. Besides, the EC50 was over 5800 nM in series [2], 560 nM in [3] and 610 nM in series [4]. Further, the selectivity ratio in series [5] worked out at 8.

On to `Fc1ccc(NC2=Nc3ccc(Cl)cc3C(C#CC3CC3)(C(F)(F)F)N2)cc1Cl` (stereo not given), for which the CC50 at 120 h in series [1] is 1900 nM. Moreover, the results for the EC50 in series [2], in series [3] and in series [4] were over 1800 nM, 460 nM and 190 nM, respectively. For the same molecule, in series [5], the selectivity ratio was 10.

In the case of `Cc1ccc(NC2=Nc3ccc(Cl)cc3C(C#CC3CC3)(C(F)(F)F)N2)cc1` (stereo not given), it took 5000 nM to reach half-maximal cytotoxicity in series [1] (CC50 at 120 h). Also, the EC50 in [2] is over 4900 nM; in [3], 400 nM; in series [4] it was 250 nM. Moreover, in [5], the selectivity ratio was determined as 20.

Molecule `N#Cc1cccc(NC2=Nc3ccc(Cl)cc3C(C#CC3CC3)(C(F)(F)F)N2)c1` (stereo not given) returned a CC50 at 120 h in [1] of 2200 nM. For the same molecule, the values for the EC50 in series [2], in series [3] and in series [4] were over 2200 nM, 650 nM and 440 nM, respectively. Further, the selectivity ratio in series [5] turned out to be 5.

As to `Fc1cccc(NC2=Nc3ccc(Cl)cc3C(C#CC3CC3)(C(F)(F)F)N2)c1` (stereo not given), the CC50 at 120 h in series [1] was found to be 2000 nM. The EC50 is over 2000 nM in [2], 340 nM in [3] and 160 nM in series [4]. In addition, the selectivity ratio in [5] amounted to 12.

Regarding `Cc1cccc(NC2=Nc3ccc(Cl)cc3C(C#CC3CC3)(C(F)(F)F)N2)c1` (stereo not given), half-maximal cytotoxicity in [1] (CC50 at 120 h) was put at 2100 nM. For the same molecule, the EC50 in series [2] is over 2100 nM; in [3] it was 360 nM; in series [4] it was 210 nM. For the same molecule, in [5], the selectivity ratio is 10.

`COc1cccc(NC2=Nc3ccc(Cl)cc3C(C#CC3CC3)(C(F)(F)F)N2)c1` (stereo not given) returned a CC50 at 120 h in series [1] of 2700 nM. In addition, the IC50 in [6] turned out to be 1.1 nM. For the same molecule, the EC50 is over 2600 nM in series [2], 290 nM in series [3] and 63 nM in [4]. In addition, the selectivity ratio in series [5] amounted to 44.
